Calls of active or inactive are those of the source. The calls are words filed in the database; no cut-off is given here.
System: PC-12
Assay: Neuritogenic activity in rat PC12 cells assessed as potentiation of NGF-induced neurite outgrowth at 1 to 30 uM after 4 days by phase-contrast microscopy in presence of 1 ng/ml NGF
Type: functional, cell-based

| Structure (SMILES) | Activity |
| --- | --- |
| CO[C@H]1[C@H](OC)C(=O)c2c(oc3c(O)cccc23)[C@@H]1O | Active |
| CO[C@@H]1C(=O)c2c(oc3ccccc23)[C@H](O)[C@H]1O | Active |
| CO[C@H]1[C@H](O)c2oc3ccccc3c2C(=O)[C@@H]1OC | Active |
| CO[C@@H]1[C@H](OC)C(=O)c2c(oc3ccccc23)[C@@H]1O | Active |

Source: ChEMBL document CHEMBL2203255, “Nerve growth factor-potentiating benzofuran derivatives from the medicinal fungus Phellinus ribis” (J Nat Prod, 2012)
